Entries after “also recorded” stand apart in the source; their conditions may differ.
How the values were obtained:
estrogen receptor = biological target: T1, estrogen receptor (Homo sapiens, UniProt P03372); assay: Specific [3H]estradiol-17β binding in MCF-7 parental cells; settings: 10 μM compound, 2 nM [3H]estradiol-17β
T1 construct: endogenous in cells; host or cells: MCF-7 parental breast cancer cells
T1 sequence (P03372 1-595): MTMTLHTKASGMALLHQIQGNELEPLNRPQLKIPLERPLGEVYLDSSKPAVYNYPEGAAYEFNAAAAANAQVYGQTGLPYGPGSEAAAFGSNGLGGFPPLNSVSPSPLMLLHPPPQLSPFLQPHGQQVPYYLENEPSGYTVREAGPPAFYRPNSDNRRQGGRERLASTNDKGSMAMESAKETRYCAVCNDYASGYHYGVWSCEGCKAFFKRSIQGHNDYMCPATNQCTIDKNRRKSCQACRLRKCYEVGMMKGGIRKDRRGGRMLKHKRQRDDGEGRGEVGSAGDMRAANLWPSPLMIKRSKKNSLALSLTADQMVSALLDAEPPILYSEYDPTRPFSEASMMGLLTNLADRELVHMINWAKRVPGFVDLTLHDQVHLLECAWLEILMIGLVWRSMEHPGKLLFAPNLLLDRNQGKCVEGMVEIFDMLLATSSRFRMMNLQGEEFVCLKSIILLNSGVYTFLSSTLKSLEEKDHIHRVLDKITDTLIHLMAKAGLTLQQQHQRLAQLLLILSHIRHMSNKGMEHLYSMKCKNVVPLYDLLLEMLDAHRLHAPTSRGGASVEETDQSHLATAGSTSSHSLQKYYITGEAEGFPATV
Method: Specific estradiol binding: Specific estradiol-17β (E2) binding was assessed in MCF-7 parental breast cancer cells as before (14-16). Briefly, cells were incubated with 2 nM [^3H]estradiol-17β and varying concentrations (1 nM-10 μM) of new estrogen receptor downregulator (ERD) analogues. The efficiency of the binding of compounds was measured by the loss of radioactivity of the [^3H]estradiol-17β. A 100-fold molar excess of unlabeled E2 was present with [3H]estradiol-17β in paired samples for determination of displaceable binding. […] Compounds S1-S14 are test compounds different from the exemplified compounds described herein.

ER protein = biological target: T2, ER protein (Homo sapiens, UniProt P03372); assay: ER down-regulation, Western immunoblot of ER (66 kD) in MCF-7 cells; type: cell-based; settings: 24 hours, 10, 100 and 1000 nM
T2 construct: endogenous in cells; host or cells: MCF-7 breast tumor cells
T2 sequence (P03372 1-595): T1 sequence (P03372 1-595)
Text: ER down-regulation: To determine if selected compounds can down-regulate ER protein, we treated cells for 24-48 hrs in vitro with candidate compounds at varying doses. Then, cells were disrupted and prepared for PAGE and Western immunoblots using anti-ERα antibodies (see FIG. 6). […] Those ERDs with optimal activity in down-regulating ER were investigated further in the chemistry laboratory to further refine and develop such agents.

[1] = tested on: MAPK, ERK-1 (p44) and ERK-2 (p42); assay: Estrogen-induced phosphorylation of MAPK in MCF-7 parental cells, Western blot; type: cell-based, human; settings: for E2-induced rapid phosphorylation of ERK-1 and ERK-2 after pre-incubation: 1000 nM, in presence of estradiol (E2)
Method: ERD inhibition of phosphorylation of MAPK, at both extracellular signal-regulated kinases ERK-1 (p44) and ERK-2 (p42) and downstream effects. […] Thus, we measured estrogen-induced phosphorylation of MAPK by established methods (9,15,16). Briefly, MCF-7 parental cells were estrogen deprived for 48 hrs, then treated with 1 nM estradiol-17β in the presence of new compounds (10 nM-10 μM) to be tested for antagonist activity. After treatments, cell lysates were separated by SDS-PAGE followed by Western blot using a polyclonal antibody directed to phospho-p44/p42 MAP kinase (Thr202/Tyr204) (Cell Signaling). Immunodetection with antibody against total p44/p42 (Cell Signaling) was done as a control for gel loading. […] E2 but not vehicle (CN) induced rapid phosphorylation of ERK-1 (p44) and ERK-2 (p42). This activation was prevented when cells were pre-incubated with 1000 nM ICI 182,780 (ICI; Faslodex) or 1000 nM compound S15 in the presence of estradiol (E2).

[2] = tested on: human MCF-7 breast cancer cells; assay: MCF-7 cell proliferation, BrdU ELISA, in presence of 1 nM estradiol-17β; type: cell-based; settings: for inhibition of MCF-7 cell proliferation/survival: 1 μM or 50 μM, in presence of 1 nM estradiol-17β, 72 hr; for effectiveness compared with fulvestrant in MCF-7 proliferation: same doses in vitro (1 μM or 50 μM)
Method: In experiments to assess potential proliferative effects of novel estrogen receptor ligands, human breast cancer cells were grown in phenol red-free, estrogen-free media with 1% dextran-coated charcoal-treated (DCC)-fetal bovine serum (FBS) for 48 hrs (15,44), then treated with either 1 μM or 50 μM doses of estrogen receptor antagonists in the presence of 1 nM estradiol-17β. Cell counts and viability tests (Trypan blue) were done every 24 hr for 3 days. After 72 hr, proliferation was assessed using the BrdU Cell proliferation ELISA (Roche). Cell numbers were also assessed initially by cell counts to confirm ELISA data. Each antiestrogen was tested at least in three different experiments.
In order to assess the antitumor action of novel estrogen receptor antagonists, we cultured human MCF-7 breast cancer cells with known expression of ERα. […] Cell proliferation is expressed as percentage of that determined in the 1 nM estradiol-17β-treated control group.

estrogen receptor-alpha = biological target: T3, estrogen receptor-alpha (Homo sapiens, UniProt P03372); assay: Western immunoblot of ERα protein levels in MCF-7 cells after 48 hrs; type: cell-based; settings: 1 μM or 10 μM, in presence of 1 nM estradiol-17β
T3 construct: MCF-7 breast cancer cells with high expression of ERα protein were treated with estradiol-17β; endogenous in cells; host or cells: MCF-7 human breast cancer cells
T3 sequence (P03372 1-595): T1 sequence (P03372 1-595)

[3] = tested on: human non-small cell lung cancer cells A549; assay: A549 non-small cell lung cancer cell proliferation, MTS assay; type: cell-based; settings: 1 μM or 10 μM, 72 hours, compared with fulvestrant
Method: Cell counts and viability tests (Trypan blue) were done every 24 hours for 3 days. After 72 hours, proliferation was assessed using the CellTiter 96™ AQueous One Solution Cell Proliferation Assay (MTS) from Promega. Cell numbers were also assessed initially by cell counts to confirm ELISA data. Each antiestrogen was tested in at least in three independent experiments.

[4] = clinic; cited from earlier work
MCF-7/HER-2 cells = settings: xenografts in nude mice; cited from earlier work
MCF-7 parental cells = settings: xenografts in nude mice; cited from earlier work
ER+ early breast cancer = settings: cited from earlier work

Question: Which “suppression of specific binding of [3H]estradiol-17β” value (estrogen receptor) does the source give for `C[C@]12C[C@H](Oc3ccc(N)cc3)[C@@H]3c4ccc(O)cc4CC[C@H]3[C@@H]1CC[C@@H]2O` [JD105, (8S,9S,11S,13S,14S,17S)-11l-(4-aminophenoxy)-13-methyl-7,8,9,11,12,13,14,15,16,17-decahydro-6H-cyclopenta[a]phenanthrene-3,17-diol] here?
Answer: suppressed

Question: What about the “suppression of specific binding of [3H]estradiol-17β” value (estrogen receptor; listed as S15) of the same compound?
Answer: suppressed effectively

Question: And the “ER protein levels in MCF-7 cells” value (ER protein)?
Answer: reduces ER protein levels

Question: What about the “inhibition of estrogen-induced phosphorylation of MAPK (ERK-1 p44 and ERK-2 p42)” value ([1]; 1 nM estradiol-17β) of the same compound?
Answer: inhibits phosphorylation of MAPK

Question: What about the “E2-induced rapid phosphorylation of ERK-1 and ERK-2 after pre-incubation” value [1] of the same compound?
Answer: prevented

Question: What about the “effectiveness compared with fulvestrant in inhibiting estrogen-induced MAPK phosphorylation” value ([1]; breast tumor cells in vitro) of the same compound?
Answer: as effective as fulvestrant

Question: Which results are given for `C[C@]12C[C@H](Oc3ccc(N)c(C(F)(F)F)c3)[C@@H]3c4ccc(O)cc4CC[C@H]3[C@@H]1CC[C@@H]2O` [JD128, (8S,9S,11S,13S,14S,17S)-11-(4-Amino-3-(trifluoromethyl)phenoxy)-13-methyl-7,8,9,11,12,13,14,15,16,17-decahydro-6H-cyclopenta[a]phenanthrene-3,17-diol]?
Answer: inhibition of MCF-7 cell proliferation/survival [2]: significant inhibition; effectiveness compared with fulvestrant in MCF-7 proliferation [2]: more effective than the ER-downregulator fulvestrant; ERα protein expression in MCF-7 cells (estrogen receptor-alpha): greatest effect at suppressing estrogen receptor-alpha expression

Question: Which “antiproliferative effects in A549 cells” value [3] does the source give for `C[C@]12C[C@H](Oc3ccc(NC(=O)CCCCN4CCCCC4)c(F)c3)[C@@H]3c4ccc(O)cc4CC[C@H]3[C@@H]1CC[C@@H]2O` [JD140, N-(4-(((8S,9S,11S,13S,14S,17S)-3,17-Dihydroxy-13-methyl-7,8,9,11,12,13,14,15,16,17-deca-hydro-6H-cyclopenta[a]phenanthren-11-yl)oxy)-2-fluorophenyl)-5-(piperidin-1-yl)pentan-amide] here?
Answer: significant antiproliferative effects

Question: And the “inhibition of MCF-7 cell proliferation/survival” value [2]?
Answer: significant inhibition

Question: And the “effectiveness compared with fulvestrant in MCF-7 proliferation” value [2]?
Answer: more effective than the ER-downregulator fulvestrant

Question: What about the “ERα protein expression in MCF-7 cells” value (estrogen receptor-alpha) of the same compound?
Answer: down-regulated

Question: With `C[C@]12CC[C@@H]3c4ccc(O)cc4C[C@@H](CCCCCCCCC[S+]([O-])CCCC(F)(F)C(F)(F)F)[C@H]3[C@@H]1CC[C@@H]2O` (stereo partly drawn) [fulvestrant] as the compound, how does the bioavailability [4] read?
Answer: very low bioavailability; also recorded: low bioavailability

Question: What about the “sensitivity of MCF-7/HER-2 tumors” value (MCF-7/HER-2 cells) of the same compound?
Answer: partially sensitive

Question: What about the “growth of parent MCF-7 tumors” value (MCF-7 parental cells) of the same compound?
Answer: suppressed

Question: What about the “E2-induced rapid phosphorylation of ERK-1 and ERK-2 after pre-incubation” value [1] of the same compound?
Answer: prevented

Question: For `CC/C(=C(\c1ccccc1)c1ccc(OCCN(C)C)cc1)c1ccccc1` [tamoxifen], which “sensitivity of MCF-7/HER-2 tumors” value (MCF-7/HER-2 cells) is on record?
Answer: insensitive

Question: And the “growth of parent MCF-7 tumors” value (MCF-7 parental cells)?
Answer: suppressed

Question: And the “reduction in disease recurrence” value (ER+ early breast cancer)?
Answer: 39%

Question: What about the reduction in mortality (ER+ early breast cancer) of the same compound?
Answer: 31%

From patent publication US10400006B2, “Estrogen receptor modulators” (THE REGENTS OF THE UNIVERSITY OF CALIFORNIA, priority 2014, dated 2019)
